Patent US9149546B2, “Compound having affinity for amyloid” (NIHON MEDI-PHYSICS CO., LTD., priority 2011, dated 2015)

What was measured:
[1] = Measurement of partition coefficient based on the octanol extraction method; assay type: physicochemical; conditions: water saturated 1-octanol / 1-octanol saturated water, 20 to 25±2° C.
Procedure: Water saturated 1-octanol and 1-octanol saturated water were added to the equilibrated vessel each in an amount of 200 μL, 400 μL or 800 μL. The equilibrated vessel was subjected to stirring, and then was shaken for 5 minutes (20 to 25±2° C., 20 rpm). […] Using the obtained count, log Poctanol was calculated in accordance with the following equation (1).

[2] = molecular target: amyloid aggregates in the brain of AD patients (Homo sapiens, UniProt P05067); assay: Binding assay using brain gray matter homogenate of AD patients (Kd, Bmax); conditions: mixed solution of Compound 1 and Compound 3, 0.2 to 25 nmol/L; brain gray matter homogenate (frontal lobe) of AD patients; 22° C., 3 hours
Sequence of amyloid aggregates in the brain of AD patients (P05067 672-713): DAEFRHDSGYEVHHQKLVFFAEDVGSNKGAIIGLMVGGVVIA
Procedure: Calculation of Dissociation Constant (Hereinafter, Referred to as Kd) and Maximum Binding Amount (Hereinafter, Referred to as Bmax) Resulting from Binding Assay Using Brain Tissue of Patients of Alzheimer's Disease (Hereinafter, Referred to as AD)
The assay was conducted using a brain gray matter homogenate of AD patients, which was prepared from a brain tissue (Frontal lobe) of AD patients commercially available from Analytical Biological Services Inc. (United States).
A mixed solution of Compound 1 (about 35 kBq/100 μL) and Compound 3 (62.5 nmol/L) was diluted with a 0.1% bovin serum albumin (hereinafter referred to as BSA)-containing 5 mmol/L phosphate buffer saline solution, and prepared to have a concentration of 0.2 nmol/L to 25 nmol/L in the reaction solution. To each well of a 96-well microplate, 100 μL of a 0.1% BSA-containing 5 mmol/L phosphate buffer saline solution and 100 μL of the prepared mixed solution of Compound 1 and Compound 3 were added. […] The filter after filtration was washed with a 0.1% BSA-containing 5 mmol/L phosphate buffer saline solution (200 μL×3 times), and then radioactivity remaining in the filter was measured with an Autowell Gamma system (type: ARC-7001, manufactured by Aloka). […] The resulting count was analyzed with GraphPad Prism Ver. 5 (manufactured by GraphPad Software, Inc.), and binding parameter (Kd, Bmax) was calculated.

[3] = Measurement of transferability into brain and clearance; assay type: in vivo, male Wistar rats; conditions: rats, intravenous injection; for Radioactive accumulation per unit weight, After 2 min. / Radioactive accumulation per unit weight, After 5 min. / Radioactive accumulation per unit weight, After 15 min. / Radioactive accumulation per unit weight, After 30 min. / Radioactive accumulation per unit weight, After 60 min.: brain; for Radioactive accumulation per unit weight, After 2 min.: 2 min after injection; for Radioactive accumulation per unit weight, After 5 min.: 5 min after injection; for Radioactive accumulation per unit weight, After 15 min.: 15 min after injection; for Radioactive accumulation per unit weight, After 30 min.: 30 min after injection; for Radioactive accumulation per unit weight, After 60 min.: 60 min after injection; for transferability to brain and clearance from brain (in words): 2 to 60 min
Procedure: The sample solution was injected under non-anesthesia into the tail vein of male Wistar rats (8-week old) (dosage: 0.2 mL, dosed radioactivity: 7.4 MBq equivalent). The rats were sacrificed by decapitating under non-anesthesia to sample bloods and brains 2, 5, 15, 30 and 60 minutes after the injection. Brains were subjected to measurement of mass of brains and further subjected to measurement of radioactivity (hereinafter referred to as A in this Example) with a single channel analyzer (detector type SP-20 manufactured by OHYO KOKEN KOGYO Co., Ltd.). Further, the radioactivity level of the rest of the whole body including blood was measured in the same manner as above (hereinafter referred to as B in this Example). Using these measurement results, the amount of radioactive accumulation per unit weight of brain (% ID/g) at the respective time points were calculated in accordance with the following formula (2).
Separately, a solution of [^123I]-IMPY dissolved in a physiological saline solution containing 50 mmol/L of L-cysteine hydrochloride (radioactive concentration: 37 MBq/mL) was prepared. The same procedure as above was carried out to calculate the amount of radioactive accumulation per unit weight of brain (% ID/g) at the respective time points.
Meanwhile, in this Example, three animals were used for the experiment at the respective time points.

[4] = system: site of amyloid deposition in brain slice of AD patients; assay: Confirmation of compound avidity for brain slice of AD patients by autoradiography; assay type: binding, human; conditions: 5 μm brain slice of AD patients, 10 kBq/mL, 30 minutes, room temperature; amyloid deposition confirmed by immunostaining
Procedure: The following experiment was carried out in order to examine whether amyloid in brain of AD patients can be imaged by the compound of the present invention. • (1) A 5 μm-thick brain slice of AD patients was prepared from a brain tissue of AD patients available from Analytical Biological Services Inc. (United States). • (2) The brain slice was immersed in PBS for 15 minutes, 5 minutes and 5 minutes each. […] Then, it was immersed in a 1% BSA-containing PBS solution, a PBS solution and a PBS solution each for 5 minutes to wash the brain slice. The washed brain slice was sufficiently dried, and then exposed to an imaging plate for 16 hours, and then autoradiogram image analysis was carried out by use of a Bio-imaging Analyzer (type: BAS-2500; manufactured by FUJIFILM Corporation) (FIG. 3, FIG. 4, FIG. 5). • (3) Immunostaining at a site of amyloid deposition with an anti-amyloid antibody was carried out using adjacent slices. Anti-Human Amyloidβ (N) (82E1) Mouse IgG MoAb (Immuno-Biological Laboratories Co., Ltd.) was used as the anti-amyloid antibody, and Anti-Mouse IgG (H+L) Goat IgG Fab′-HRP (Immuno-Biological Laboratories Co., Ltd.) was used as a secondary antibody. […] Results

logP at 5 min ([1]; 1-octanol/water, read-out: logPoctanol value)	logPoctanol value [1]	Bmax [2] [fmol/mg protein]	Radioactive accumulation per unit weight, After 2 min. [3] [% ID/g]	Radioactive accumulation per unit weight, After 5 min. [3] [% ID/g]	Radioactive accumulation per unit weight, After 15 min. [3] [% ID/g]	Radioactive accumulation per unit weight, After 30 min. [3] [% ID/g]	Radioactive accumulation per unit weight, After 60 min. [3] [% ID/g]	binding to the site of amyloid deposition on autoradiogram [4]	Compound	transferability to brain and clearance from brain (in words) [3]
1.98	1.98	2242	1.085	0.701	0.260	0.100	0.034	confirmed	[123I]c1ccc2nc(-c3ccc(-n4ccnn4)cc3)cn2c1 [Compound 1, [^123I]-6-iodo-2-[4-(1H-1,2,3,-triazole-1-yl)phenyl]imidazo[1,2-a]pyridine]	excellent transferability to brain and rapid clearance from brain
			1.644	1.192	0.554	0.225	0.085	confirmed	CN(C)c1ccc(-c2cn3cc(I)ccc3n2)cc1 [[^123I]-IMPY, 6-iodo-2-[4′-(N,N-dimethylamino)phenyl]imidazo[1,2-a]pyridine, reference compound]	

Compound	logP at 5 min ([1]; 1-octanol/water, read-out: logPoctanol value)	logPoctanol value [1]	Bmax [2] [fmol/mg protein]	Radioactive accumulation per unit weight, After 2 min. [3] [% ID/g]	Radioactive accumulation per unit weight, After 5 min. [3] [% ID/g]	Radioactive accumulation per unit weight, After 15 min. [3] [% ID/g]	Radioactive accumulation per unit weight, After 30 min. [3] [% ID/g]	Radioactive accumulation per unit weight, After 60 min. [3] [% ID/g]	binding to the site of amyloid deposition on autoradiogram [4]	transferability to brain and clearance from brain (in words) [3]
[^123I]-6-iodo-2-[4-(1H-pyrrole-1-yl)phenyl]imidazo[1,2-a]pyridine [Compound 2]				1.201	1.065	0.745	0.349	0.113	confirmed	excellent transferability to brain and rapid clearance from brain
